Results reported in PubChem BioAssay AID2060602 (Molecular Pharmacology Branch, DTP, NCI, 2025).
pIC50: −log10 of the molar value.

System: 648629-189-R-J1-PDC complex spheroids viability
Test: Anticancer human tumor 648629-189-R-J1-PDC patient-derived bladder carcinoma cell line growth inhibition [CLK]
Conditions: for pIC50: curve of first compound; for viability, T/C: stronger effect = lower value
Outline: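 Patient-derived tumor cells grown as complex spheroids with HUVEC endothelial cells and mesenchymal stem cells, treated with drug combinations. Concentrations descend in half-log steps from near clinical Cmax, or from 10 microM if Cmax unknown.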

[1] = second compound 0.0316 µM, first compound 0.0316 µM
[2] = second compound 0.0316 µM, first compound 0.1 µM
[3] = second compound 0.0316 µM, first compound 0.316 µM
[4] = second compound 0.0316 µM, first compound 1 µM
[5] = second compound 0.0316 µM, first compound 3.16 µM
[6] = second compound 0.0316 µM, first compound 10 µM
[7] = second compound 0.1 µM, first compound 0.0316 µM
[8] = second compound 0.1 µM, first compound 0.1 µM
[9] = second compound 0.1 µM, first compound 0.316 µM
[10] = second compound 0.1 µM, first compound 1 µM
[11] = second compound 0.1 µM, first compound 3.16 µM
[12] = second compound 0.1 µM, first compound 10 µM
[13] = second compound 0.316 µM, first compound 0.0316 µM
[14] = second compound 0.316 µM, first compound 0.1 µM
[15] = second compound 0.316 µM, first compound 0.316 µM
[16] = second compound 0.316 µM, first compound 1 µM
[17] = second compound 0.316 µM, first compound 3.16 µM
[18] = second compound 0.316 µM, first compound 10 µM
[19] = second compound 1 µM, first compound 0.0316 µM
[20] = second compound 1 µM, first compound 0.1 µM
[21] = second compound 1 µM, first compound 0.316 µM
[22] = second compound 1 µM, first compound 1 µM
[23] = second compound 1 µM, first compound 3.16 µM
[24] = second compound 1 µM, first compound 10 µM
[25] = second compound 3.16 µM, first compound 0.0316 µM
[26] = second compound 3.16 µM, first compound 0.1 µM
[27] = second compound 3.16 µM, first compound 0.316 µM
[28] = second compound 3.16 µM, first compound 1 µM
[29] = second compound 3.16 µM, first compound 3.16 µM
[30] = second compound 3.16 µM, first compound 10 µM
[31] = second compound 10 µM, first compound 0.0316 µM
[32] = second compound 10 µM, first compound 0.1 µM
[33] = second compound 10 µM, first compound 0.316 µM
[34] = second compound 10 µM, first compound 1 µM
[35] = second compound 10 µM, first compound 3.16 µM
[36] = second compound 10 µM, first compound 10 µM
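For viability, T/C in this document: drug exposure lasted seven days before viability readout; 100% = DMSO vehicle control wells.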

Q: What does the source list for `Nc1ccn(C2OC(CO)C(O)C2(F)F)c(=O)n1` (centres undefined) + CNC(=O)c1ccc(Nc2nc(OC3CCCC3)c3c(-c4ccc5nc(C)oc5c4)c[nH]c3n2)c(OC)c1?
A: pIC50 (second compound 0.0316 µM): 7.42; pIC50 (second compound 0.1 µM): 7.38; pIC50 (second compound 0.316 µM): > 7.50; pIC50 (second compound 1 µM): > 7.50; pIC50 (second compound 3.16 µM): > 7.50; pIC50 (second compound 10 µM): > 7.50; viability, T/C [1]: 56.8%; viability, T/C [2]: 16.1%; viability, T/C [3]: 10.6%; viability, T/C [4]: 8.41%; viability, T/C [5]: 8.43%; viability, T/C [6]: 6.82%; viability, T/C [7]: 58.7%; viability, T/C [8]: 23.9%; viability, T/C [9]: 10.1%; viability, T/C [10]: 8.46%; viability, T/C [11]: 7.09%; viability, T/C [12]: 5.88%; viability, T/C [13]: 18.1%; viability, T/C [14]: 14.3%; viability, T/C [15]: 8.69%; viability, T/C [16]: 7.21%; viability, T/C [17]: 7.97%; viability, T/C [18]: 6.5%; viability, T/C [19]: 18.2%; viability, T/C [20]: 13.3%; viability, T/C [21]: 11.8%; viability, T/C [22]: 8.47%; viability, T/C [23]: 9.1%; viability, T/C [24]: 7.07%; viability, T/C [25]: 16.2%; viability, T/C [26]: 14.8%; viability, T/C [27]: 11.2%; viability, T/C [28]: 11.7%; viability, T/C [29]: 11.2%; viability, T/C [30]: 7.1%; viability, T/C [31]: 18.1%; viability, T/C [32]: 18%; viability, T/C [33]: 14.7%; viability, T/C [34]: 10.1%; viability, T/C [35]: 9.44%; viability, T/C [36]: 7.39%

Q: What does the source list for `O=c1[nH]cc(F)c(=O)[nH]1` + CNC(=O)c1ccc(Nc2nc(OC3CCCC3)c3c(-c4ccc5nc(C)oc5c4)c[nH]c3n2)c(OC)c1?
A: pIC50 (second compound 0.0316 µM): 6.06; pIC50 (second compound 0.1 µM): 6.27; pIC50 (second compound 0.316 µM): > 7.50; pIC50 (second compound 1 µM): > 7.50; pIC50 (second compound 3.16 µM): > 7.50; pIC50 (second compound 10 µM): > 7.50; viability, T/C [1]: 107%; viability, T/C [2]: 95.1%; viability, T/C [3]: 77.4%; viability, T/C [4]: 45.8%; viability, T/C [5]: 33.2%; viability, T/C [6]: 32.5%; viability, T/C [7]: 79.9%; viability, T/C [8]: 86.9%; viability, T/C [9]: 64.8%; viability, T/C [10]: 32.2%; viability, T/C [11]: 23.9%; viability, T/C [12]: 22.9%; viability, T/C [13]: 21%; viability, T/C [14]: 23.6%; viability, T/C [15]: 22.2%; viability, T/C [16]: 11.9%; viability, T/C [17]: 12.8%; viability, T/C [18]: 10.3%; viability, T/C [19]: 15.8%; viability, T/C [20]: 18.7%; viability, T/C [21]: 15.7%; viability, T/C [22]: 11.2%; viability, T/C [23]: 9.79%; viability, T/C [24]: 9.97%; viability, T/C [25]: 21.1%; viability, T/C [26]: 20.4%; viability, T/C [27]: 18.6%; viability, T/C [28]: 10.2%; viability, T/C [29]: 10.9%; viability, T/C [30]: 10.6%; viability, T/C [31]: 17.8%; viability, T/C [32]: 14.8%; viability, T/C [33]: 17.4%; viability, T/C [34]: 11.4%; viability, T/C [35]: 11.5%; viability, T/C [36]: 9.63%
